Data as given in ChEMBL document CHEMBL1201862, “PubChem BioAssay data set” (2004).
Several values for one entry are separate records, joined by “and”; a condition that tells them apart may be missing. Equal values may be shown once. Activity calls are given as the source filed them.

Columns and labels:
[1] = molecular target: Sphingosine 1-phosphate receptor 1 (Homo sapiens, UniProt P21453); assay type: functional;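 note: Tango beta-arrestin reporter U2OS cells stimulated with S1P near its EC80; inhibitor potency meaning antagonism of receptor activation by the natural agonist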
[2] = molecular target: Sphingosine 1-phosphate receptor 4 (Homo sapiens, UniProt O95977); assay: Fluorescence dose response cell-based high throughput screening assay for antagonists of the Sphingosine 1-Phosphate Receptor 4 (S1P4). [Related pubchem assays: 1524 (Confirmation in triplicates.), 1510 (Primary screen.)]; assay type: functional
[3] = molecular target: Ras and Rab interactor 1/Tyrosine-protein kinase ABL1 (Homo sapiens, UniProt P00519+Q13671); assay type: functional;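 note: biochemical TR-FRET dose-response test measuring inhibition of binding between Rin1 and Abl proteins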
[4] = molecular target: T1, Sentrin-specific protease 7 (Homo sapiens, UniProt Q9BQF6); assay type: functional;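 note: Luminescence-based dose-response confirmation of ultra-high-throughput screening hits, measuring inhibition of SENP7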
T1 sequence (Q9BQF6 whole entry): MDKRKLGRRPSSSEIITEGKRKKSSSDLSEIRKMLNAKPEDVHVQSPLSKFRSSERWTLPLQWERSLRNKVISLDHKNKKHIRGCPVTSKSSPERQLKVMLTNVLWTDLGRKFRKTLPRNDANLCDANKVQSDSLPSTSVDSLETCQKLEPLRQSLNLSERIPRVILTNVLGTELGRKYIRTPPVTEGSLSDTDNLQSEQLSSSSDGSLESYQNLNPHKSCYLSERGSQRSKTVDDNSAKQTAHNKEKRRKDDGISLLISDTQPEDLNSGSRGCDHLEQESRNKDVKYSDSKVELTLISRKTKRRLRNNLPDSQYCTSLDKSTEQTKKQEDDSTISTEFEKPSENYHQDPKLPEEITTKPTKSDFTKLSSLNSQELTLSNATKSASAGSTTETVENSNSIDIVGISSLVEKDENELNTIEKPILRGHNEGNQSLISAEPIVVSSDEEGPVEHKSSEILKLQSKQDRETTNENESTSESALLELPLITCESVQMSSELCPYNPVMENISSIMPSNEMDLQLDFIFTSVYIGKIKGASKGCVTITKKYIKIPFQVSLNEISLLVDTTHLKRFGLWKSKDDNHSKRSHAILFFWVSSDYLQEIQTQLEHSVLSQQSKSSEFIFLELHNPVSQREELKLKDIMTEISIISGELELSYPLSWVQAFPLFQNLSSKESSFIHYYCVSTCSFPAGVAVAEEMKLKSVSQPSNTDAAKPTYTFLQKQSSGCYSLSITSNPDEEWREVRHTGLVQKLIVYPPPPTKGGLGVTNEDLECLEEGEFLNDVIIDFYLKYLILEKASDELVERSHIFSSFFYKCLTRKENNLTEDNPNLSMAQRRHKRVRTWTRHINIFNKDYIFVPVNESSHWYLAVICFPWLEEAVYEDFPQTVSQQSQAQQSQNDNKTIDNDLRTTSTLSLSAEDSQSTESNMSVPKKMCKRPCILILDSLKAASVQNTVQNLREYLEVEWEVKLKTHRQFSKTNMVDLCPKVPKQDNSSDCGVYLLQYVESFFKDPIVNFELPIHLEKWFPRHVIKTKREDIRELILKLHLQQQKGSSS

[5] = molecular target: RNA-editing ligase 1, mitochondrial (Trypanosoma brucei brucei, UniProt P86926); assay: inhibition of trypanosome RNA editing ligase – biochemical, fluorescence, Trypanosoma brucei, dose response (AID 1117295); assay type: functional
[6] = molecular target: Eukaryotic translation initiation factor 4E (Mus musculus, UniProt P63073); assay: blockers of eIF4G binding by eIF4E – biochemical, TR-FRET, dose response (AID 855); assay type: functional;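 note: potency for disrupting eIF4E binding to eIF4GI seen as loss of FRET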
Phospholipase A2 = Phospholipase A2 (Homo sapiens, UniProt P04054); assay type: functional;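 note: confirmatory dose-response counterscreen on phospholipase A2, testing hits that came from an ultra-high-throughput screen for ATG4B inhibitors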
[7] = molecular target: T2, Calpain-2 catalytic subunit (Sus scrofa, UniProt P43367); assay: m-calpain protease blockers, concentration series – biochemical, fluorogenic peptide substrate, dose response (AID 1420); assay type: functional
T2 sequence (P43367 whole entry): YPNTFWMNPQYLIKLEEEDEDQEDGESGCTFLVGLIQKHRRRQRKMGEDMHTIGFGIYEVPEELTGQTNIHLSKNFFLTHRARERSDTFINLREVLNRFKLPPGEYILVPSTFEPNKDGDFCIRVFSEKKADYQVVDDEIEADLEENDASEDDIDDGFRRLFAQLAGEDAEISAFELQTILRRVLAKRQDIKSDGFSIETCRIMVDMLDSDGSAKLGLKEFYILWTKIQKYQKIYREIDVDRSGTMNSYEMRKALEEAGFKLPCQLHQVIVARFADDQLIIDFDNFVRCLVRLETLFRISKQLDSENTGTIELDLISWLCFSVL

[8] = molecular target: T3, Ubiquitin-conjugating enzyme E2 N (Homo sapiens, UniProt P61088); assay type: functional;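 note: Dose-response confirmation in a TR-FRET assay detecting UBC13-driven polyubiquitin chain formation, inhibition measured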
T3 sequence (P61088 whole entry): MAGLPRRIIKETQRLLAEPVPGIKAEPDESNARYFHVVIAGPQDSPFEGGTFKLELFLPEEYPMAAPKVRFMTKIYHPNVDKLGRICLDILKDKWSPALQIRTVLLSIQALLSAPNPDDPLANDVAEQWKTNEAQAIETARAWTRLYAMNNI

[9] = Trypanosoma cruzi growth suppression in host cells – NIH3T3 host cells, beta-gal luminescence, confirmation (AID 2044); assay type: functional, cell-based;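 note: intracellular parasites grown in NIH/3T3 mouse fibroblasts as host cells; luminescent beta-galactosidase reporter signal from transgenic T. cruzi replicating inside host cells; inhibitors lower the luminescence signal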
[10] = off-target signal loss in HeLa-CEM21 co-culture – HeLa F-luc CTL cells, cherry-picked, counter-screen for HIV-1 Env fusion inhibitor project, dose response (AID 652040); assay type: functional, cell-based;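 note: potency for signal decrease marking cytotoxic or nonspecific inhibition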
[11] = molecular target: Peroxisome proliferator-activated receptor gamma/Nuclear receptor coactivator 2 (Homo sapiens, UniProt P37231); assay type: functional;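 note: agonist potency for raising coactivator recruitment to the receptor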
[12] = molecular target: T4, Mannose-6-phosphate isomerase (Homo sapiens, UniProt P34949); assay: MPI inhibition at elevated mannose 6-phosphate – biochemical, fluorescence intensity, high mannose 6-phosphate, primary screen (AID 1220)
T4 sequence (P34949 whole entry): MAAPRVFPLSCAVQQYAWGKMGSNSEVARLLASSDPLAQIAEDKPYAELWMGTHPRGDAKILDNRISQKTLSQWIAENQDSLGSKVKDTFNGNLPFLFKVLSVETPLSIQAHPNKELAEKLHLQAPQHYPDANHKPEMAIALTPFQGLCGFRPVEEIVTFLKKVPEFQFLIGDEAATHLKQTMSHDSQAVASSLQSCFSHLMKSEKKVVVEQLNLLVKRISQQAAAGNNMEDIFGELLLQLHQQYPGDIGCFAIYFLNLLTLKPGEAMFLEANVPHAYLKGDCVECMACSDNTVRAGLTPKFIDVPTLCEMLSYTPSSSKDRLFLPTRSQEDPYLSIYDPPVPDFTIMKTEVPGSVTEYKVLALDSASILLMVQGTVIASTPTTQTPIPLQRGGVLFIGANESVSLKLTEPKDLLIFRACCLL

Chain of Peroxisome proliferator-activated receptor gamma/Nuclear receptor coactivator 2 (P37231 whole entry): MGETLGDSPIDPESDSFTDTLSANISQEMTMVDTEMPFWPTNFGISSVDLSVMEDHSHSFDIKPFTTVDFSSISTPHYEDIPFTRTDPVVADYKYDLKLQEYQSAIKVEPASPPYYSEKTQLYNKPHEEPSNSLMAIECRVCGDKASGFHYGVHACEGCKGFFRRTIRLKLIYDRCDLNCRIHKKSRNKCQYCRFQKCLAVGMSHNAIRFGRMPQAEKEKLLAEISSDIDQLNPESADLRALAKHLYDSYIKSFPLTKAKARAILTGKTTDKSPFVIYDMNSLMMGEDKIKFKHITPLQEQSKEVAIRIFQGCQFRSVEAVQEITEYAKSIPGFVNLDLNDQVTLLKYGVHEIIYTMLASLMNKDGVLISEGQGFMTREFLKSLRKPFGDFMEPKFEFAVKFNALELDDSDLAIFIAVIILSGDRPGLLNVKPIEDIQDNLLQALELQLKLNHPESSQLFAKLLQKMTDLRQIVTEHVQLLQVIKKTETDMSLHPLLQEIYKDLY
Chain of Peroxisome proliferator-activated receptor gamma/Nuclear receptor coactivator 2 (Q15596 whole entry, further chain): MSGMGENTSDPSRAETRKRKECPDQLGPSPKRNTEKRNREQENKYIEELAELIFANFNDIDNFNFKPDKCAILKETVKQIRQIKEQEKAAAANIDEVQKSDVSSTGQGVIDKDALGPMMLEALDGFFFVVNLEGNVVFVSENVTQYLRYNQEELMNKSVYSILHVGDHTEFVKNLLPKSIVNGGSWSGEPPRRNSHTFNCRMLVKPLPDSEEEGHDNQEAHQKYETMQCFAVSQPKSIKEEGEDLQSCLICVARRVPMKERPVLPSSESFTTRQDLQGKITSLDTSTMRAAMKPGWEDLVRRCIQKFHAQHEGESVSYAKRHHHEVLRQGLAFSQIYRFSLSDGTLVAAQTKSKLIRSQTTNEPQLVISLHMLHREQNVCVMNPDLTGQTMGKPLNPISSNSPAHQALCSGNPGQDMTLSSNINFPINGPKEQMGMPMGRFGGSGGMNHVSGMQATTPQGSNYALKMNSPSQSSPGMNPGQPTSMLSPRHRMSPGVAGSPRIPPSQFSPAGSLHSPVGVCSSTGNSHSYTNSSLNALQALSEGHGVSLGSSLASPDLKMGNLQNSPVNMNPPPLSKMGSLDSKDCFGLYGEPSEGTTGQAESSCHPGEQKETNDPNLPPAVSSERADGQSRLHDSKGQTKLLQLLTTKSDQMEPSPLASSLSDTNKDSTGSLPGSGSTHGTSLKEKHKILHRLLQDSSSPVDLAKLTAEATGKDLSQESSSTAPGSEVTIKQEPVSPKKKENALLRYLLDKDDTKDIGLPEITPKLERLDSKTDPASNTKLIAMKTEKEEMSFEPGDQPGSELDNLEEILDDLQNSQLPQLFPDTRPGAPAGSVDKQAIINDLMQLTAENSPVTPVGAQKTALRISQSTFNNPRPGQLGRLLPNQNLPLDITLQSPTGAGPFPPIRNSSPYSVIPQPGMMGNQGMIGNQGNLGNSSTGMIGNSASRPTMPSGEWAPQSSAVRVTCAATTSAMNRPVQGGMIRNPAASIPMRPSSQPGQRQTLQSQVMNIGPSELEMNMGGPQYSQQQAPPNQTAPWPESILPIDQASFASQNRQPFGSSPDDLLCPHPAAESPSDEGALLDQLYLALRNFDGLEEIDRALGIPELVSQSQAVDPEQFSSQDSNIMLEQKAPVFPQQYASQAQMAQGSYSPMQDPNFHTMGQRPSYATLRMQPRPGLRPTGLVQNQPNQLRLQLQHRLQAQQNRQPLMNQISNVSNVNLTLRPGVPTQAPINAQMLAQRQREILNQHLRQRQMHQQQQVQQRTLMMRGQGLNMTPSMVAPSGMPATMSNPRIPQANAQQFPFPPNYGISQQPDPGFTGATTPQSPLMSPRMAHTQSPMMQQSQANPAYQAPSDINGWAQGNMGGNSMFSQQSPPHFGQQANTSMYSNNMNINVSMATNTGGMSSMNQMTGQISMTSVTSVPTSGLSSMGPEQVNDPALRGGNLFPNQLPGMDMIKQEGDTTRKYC
Chain of Phospholipase A2 (P04054 whole entry): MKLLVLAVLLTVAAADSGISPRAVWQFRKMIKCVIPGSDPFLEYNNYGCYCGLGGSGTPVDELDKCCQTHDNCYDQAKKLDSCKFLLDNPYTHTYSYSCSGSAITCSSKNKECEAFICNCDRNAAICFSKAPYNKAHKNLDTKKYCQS
Chain of Sphingosine 1-phosphate receptor 1 (P21453 whole entry): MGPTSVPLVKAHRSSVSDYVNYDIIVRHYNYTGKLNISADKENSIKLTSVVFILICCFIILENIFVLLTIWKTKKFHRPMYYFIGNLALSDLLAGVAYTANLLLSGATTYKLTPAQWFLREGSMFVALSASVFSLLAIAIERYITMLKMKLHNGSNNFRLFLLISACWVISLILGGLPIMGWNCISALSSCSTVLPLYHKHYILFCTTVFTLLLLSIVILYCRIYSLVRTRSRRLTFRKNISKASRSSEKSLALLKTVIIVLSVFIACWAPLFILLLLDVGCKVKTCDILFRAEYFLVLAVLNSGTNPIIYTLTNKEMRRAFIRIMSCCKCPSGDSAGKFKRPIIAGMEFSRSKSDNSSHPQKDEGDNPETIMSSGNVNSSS
Chain of Sphingosine 1-phosphate receptor 4 (O95977 whole entry): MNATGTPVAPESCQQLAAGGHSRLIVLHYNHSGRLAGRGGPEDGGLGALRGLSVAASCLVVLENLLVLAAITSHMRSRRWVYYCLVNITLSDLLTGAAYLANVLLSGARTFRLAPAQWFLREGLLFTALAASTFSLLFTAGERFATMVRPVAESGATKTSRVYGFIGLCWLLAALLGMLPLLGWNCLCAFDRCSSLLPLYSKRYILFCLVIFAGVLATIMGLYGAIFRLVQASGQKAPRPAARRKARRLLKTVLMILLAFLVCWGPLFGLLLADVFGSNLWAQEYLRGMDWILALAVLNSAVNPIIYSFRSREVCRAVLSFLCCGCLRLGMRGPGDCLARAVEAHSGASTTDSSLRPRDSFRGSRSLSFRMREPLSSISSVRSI
Chain of Ras and Rab interactor 1/Tyrosine-protein kinase ABL1 (P00519 whole entry): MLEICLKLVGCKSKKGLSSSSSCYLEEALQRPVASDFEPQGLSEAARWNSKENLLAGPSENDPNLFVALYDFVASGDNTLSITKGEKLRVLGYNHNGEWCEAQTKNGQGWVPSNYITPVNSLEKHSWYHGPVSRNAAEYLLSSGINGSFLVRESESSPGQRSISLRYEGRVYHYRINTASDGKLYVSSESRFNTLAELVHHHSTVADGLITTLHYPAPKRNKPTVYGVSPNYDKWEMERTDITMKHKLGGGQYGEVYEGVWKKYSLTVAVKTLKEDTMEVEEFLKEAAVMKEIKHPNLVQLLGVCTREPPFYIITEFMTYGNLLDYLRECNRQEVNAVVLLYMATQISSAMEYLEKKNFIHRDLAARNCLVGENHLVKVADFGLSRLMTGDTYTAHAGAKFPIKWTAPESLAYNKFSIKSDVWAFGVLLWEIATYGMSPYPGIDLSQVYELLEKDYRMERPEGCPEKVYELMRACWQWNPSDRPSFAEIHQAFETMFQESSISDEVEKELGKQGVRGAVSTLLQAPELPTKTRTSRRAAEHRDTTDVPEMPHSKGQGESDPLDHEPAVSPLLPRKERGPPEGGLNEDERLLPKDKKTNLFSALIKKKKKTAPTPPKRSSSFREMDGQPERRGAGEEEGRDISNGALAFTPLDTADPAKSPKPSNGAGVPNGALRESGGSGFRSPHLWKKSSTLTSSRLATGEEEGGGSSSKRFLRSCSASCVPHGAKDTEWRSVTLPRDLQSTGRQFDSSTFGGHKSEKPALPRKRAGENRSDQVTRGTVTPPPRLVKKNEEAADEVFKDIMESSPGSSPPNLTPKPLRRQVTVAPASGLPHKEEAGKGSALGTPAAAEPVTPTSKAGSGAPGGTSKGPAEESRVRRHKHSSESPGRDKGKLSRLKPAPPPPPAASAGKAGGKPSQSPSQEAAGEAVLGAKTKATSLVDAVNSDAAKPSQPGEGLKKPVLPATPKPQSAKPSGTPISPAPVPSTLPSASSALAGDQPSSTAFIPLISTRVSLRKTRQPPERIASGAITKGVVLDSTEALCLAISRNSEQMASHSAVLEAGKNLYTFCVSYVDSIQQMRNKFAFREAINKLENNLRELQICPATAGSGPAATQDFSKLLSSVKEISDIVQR
Chain of Ras and Rab interactor 1/Tyrosine-protein kinase ABL1 (Q13671 whole entry): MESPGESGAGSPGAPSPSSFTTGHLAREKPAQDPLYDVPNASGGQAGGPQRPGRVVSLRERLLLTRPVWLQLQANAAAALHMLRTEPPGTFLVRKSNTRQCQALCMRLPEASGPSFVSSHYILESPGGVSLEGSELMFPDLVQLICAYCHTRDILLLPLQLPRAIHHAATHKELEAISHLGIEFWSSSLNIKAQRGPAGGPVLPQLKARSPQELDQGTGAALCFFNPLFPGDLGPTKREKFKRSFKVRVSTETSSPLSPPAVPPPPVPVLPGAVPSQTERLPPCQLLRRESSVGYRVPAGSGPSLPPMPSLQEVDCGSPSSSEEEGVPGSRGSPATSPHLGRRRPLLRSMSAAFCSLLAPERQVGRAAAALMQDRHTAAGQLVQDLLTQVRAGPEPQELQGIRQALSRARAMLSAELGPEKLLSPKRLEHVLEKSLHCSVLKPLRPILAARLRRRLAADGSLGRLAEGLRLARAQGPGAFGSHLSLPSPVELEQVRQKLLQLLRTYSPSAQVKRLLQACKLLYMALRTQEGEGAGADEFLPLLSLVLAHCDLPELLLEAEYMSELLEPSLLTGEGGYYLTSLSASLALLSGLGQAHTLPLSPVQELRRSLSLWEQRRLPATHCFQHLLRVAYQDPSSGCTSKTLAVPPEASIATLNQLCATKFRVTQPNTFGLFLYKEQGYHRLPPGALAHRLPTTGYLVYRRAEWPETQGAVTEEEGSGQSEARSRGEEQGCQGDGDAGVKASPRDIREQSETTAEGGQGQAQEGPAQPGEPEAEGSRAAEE
Chain of Eukaryotic translation initiation factor 4E (P63073 whole entry): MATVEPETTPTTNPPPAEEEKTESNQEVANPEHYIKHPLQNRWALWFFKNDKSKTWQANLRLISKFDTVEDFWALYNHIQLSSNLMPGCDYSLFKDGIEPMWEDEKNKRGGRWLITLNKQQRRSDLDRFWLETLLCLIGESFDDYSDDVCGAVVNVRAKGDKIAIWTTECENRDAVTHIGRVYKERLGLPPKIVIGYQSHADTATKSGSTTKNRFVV

SMILES: O=C(Nc1ccccc1Cl)/C(Cl)=C(\Cl)[S+]([O-])c1ccccc1 (stereo not drawn)
- IC50 [1]: 10.3 µM (not active)
- IC50 [2]: 0.541 µM (active)

SMILES: O=C(NC1(O)C(=O)c2ccccc2C1=O)c1ccccc1
- IC50 [3]: 25.5 µM (inactive)
- IC50 [4]: 2.99 µM (active)
- IC50 [5]: 13.7 µM (inactive)

SMILES: CCCCCCCCCCCCCCCCn1cc[n+](C)c1
- IC50 [6]: 12.9 µM (active)
- IC50 (Phospholipase A2): 5.78 µM (active)
- IC50 [7]: 11.4 µM (not active)
- IC50 [8]: > 20 µM (inactive)
- EC50 [9]: < 100 nM (active) and 103 nM (active)
- AC50 [10]: 7.76 µM (active)

SMILES: Cc1cc(C)nc(/N=c2/ssnc2Cl)c1
- EC50 [11]: > 79.4 µM (not active)
- IC50 [12]: 28.8 µM (active)
